DC50 data for 30 compounds are collected here from patent US11691972B2, “Compounds for targeted degradation of BRD9” (C4 Therapeutics, Inc., priority 2020, dated 2023).

The target of the assay is T1, BRD9 (Homo sapiens, UniProt Q9H8M2).
T1 sequence (Q9H8M2 1-597): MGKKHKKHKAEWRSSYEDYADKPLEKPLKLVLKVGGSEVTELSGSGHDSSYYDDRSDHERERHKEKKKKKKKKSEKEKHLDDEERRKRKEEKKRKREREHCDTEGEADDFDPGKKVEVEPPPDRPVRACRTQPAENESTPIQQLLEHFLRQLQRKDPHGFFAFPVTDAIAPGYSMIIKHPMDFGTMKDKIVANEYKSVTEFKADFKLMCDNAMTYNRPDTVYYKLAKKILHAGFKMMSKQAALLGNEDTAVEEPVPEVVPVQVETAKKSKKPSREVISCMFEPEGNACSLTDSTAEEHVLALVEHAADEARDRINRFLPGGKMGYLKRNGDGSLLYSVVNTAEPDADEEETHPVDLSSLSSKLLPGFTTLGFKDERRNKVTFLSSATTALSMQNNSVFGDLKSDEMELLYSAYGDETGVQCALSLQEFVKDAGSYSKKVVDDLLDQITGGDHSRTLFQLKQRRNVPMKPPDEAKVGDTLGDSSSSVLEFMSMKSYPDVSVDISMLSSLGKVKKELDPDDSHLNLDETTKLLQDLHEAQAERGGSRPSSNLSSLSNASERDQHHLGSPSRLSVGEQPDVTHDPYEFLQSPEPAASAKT
In words: HiBiT BRD9 degradation assay in 293T.166 (BRD9-HiBiT) cells. It counts as cell-based. On the set-up: endogenously expressing BRD9 with HiBiT fusion tag via CRISPR; host or cells: 293T.166 (BRD9-HiBiT), also expressing LgBiT ectopically. The following applies: 293T.166 cells, 2.0 hours, class symbols, read-out: HiBiT-Degradation 293T.166 BRD9 2.0 hours (DC50). As to the method:
Selected compounds were tested in a BRD9 degradation assay using the HiBit Method.
Dulbecco's modified Eagle medium (DMEM) without phenol red and fetal bovine serum (FBS) were purchased from Gibco (Grand Island, N.Y., USA). Nano-Glo® HiBiT Lytic Assay System was purchased from Promega (Madison, Wis., USA). 293T.166 (BRD9-HiBiT) cell line, endogenously expressing BRD9 with HiBiT fusion tag via CRISPR and ectopically expressing LgBiT tag, was purchased from Promega (Madison, Wis., USA). 293T.167 (BRD7-HiBiT) cell line, endogenously expressing BRD7 with HiBiT fusion tag via CRISPR and ectopically expressing LgBiT tag, was purchased from Promega (Madison, Wis., USA). 293T.92 (BRD4-HiBiT) cell line, endogenously expressing BRD4 with HiBiT fusion tag via CRISPR and ectopically expressing LgBiT tag, was generated in-house. Cell culture flasks and 384-well microplates were acquired from VWR (Radnor, Pa., USA).
BRD9 degradation was determined based on quantification of luminescent signal using Nano-Glo® HiBiT Lytic Assay kit. Test compounds were added to the 384-well plate from a top concentration of 10 μM with 11 points, half log titration in duplicates. 293T.166 cells were added into 384-well plates at a cell density of 10,000 cells per well. The plates were kept at 37° C. with 5% CO2 for 2 hours. BRD7 and BRD4 degradation was similarly determined with 293T.167 cells and 293T.92 cells, respectively. The cells treated in the absence of the test compound were the negative control and the cells without Nano-Glo® HiBiT Lytic reagent were the positive control. After 2-hour incubation, Nano-Glo® HiBiT Lytic Assay reagents were added to the cells. Luminescence was acquired on EnVision™ Multilabel Reader (PerkinElmer, Santa Clara, Calif., USA).

Structures are written as SMILES. Read-outs that look alike come from different tables or passages of the source. Some results are limits rather than exact numbers.

Consider `COc1cc(-c2cn(C)c(=O)c3[nH]ncc23)cc(OC)c1CN1CCN(C(=O)CN2CCC(c3ccc(NC4CCC(=O)NC4=O)cc3)CC2)CC1` (single isomer, unassigned) [Compound 2], for which the DC50 (Table 1) was less than 100 nM.
For `COc1cc(-c2cn(C)c(=O)c3cnccc23)cc(OC)c1CN1CCc2c(CC3CCN(c4ccc(NC5CCC(=O)NC5=O)cc4C(F)(F)F)CC3)cccc2C1` (stereo not drawn) [Compound 237], the DC50 (Table 1) is less than 100 nM.
Consider `Cc1c(-c2ccc(CN3CCC(C4CCN(c5ccc(NC6CCC(=O)NC6=O)cc5F)CC4)CC3)c(OC(F)(F)F)c2)cn(C)c(=O)c1C` (stereo not drawn) [Compound 80], for which the DC50 (Table 1) is less than 100 nM.
On the same count and under the same terms, to `COc1cc(-c2cn(C)c(=O)c3ccccc23)cc(Cl)c1C(=O)N1CCC(N(C)C(=O)N2CCC(c3ccc(NC4CCC(=O)NC4=O)cc3)CC2)CC1` (stereo not drawn) [Compound 136] belongs less than 100 nM; to `Cc1c(-c2ccc(CN3CCC(C4CCN(c5ccc(NC6CCC(=O)NC6=O)cc5F)CC4)CC3)nc2)cn(C)c(=O)c1C` (stereo not drawn) [Compound 81], less than 100 nM; to `COc1cc(-c2cn(C)c(=O)c3cnccc23)cc(Cl)c1C(=O)N1CCC(N(C)C(=O)N2CCC(c3ccc(NC4CCC(=O)NC4=O)cc3)CC2)CC1` (stereo not drawn) [Compound 126, N-[1-[2-chloro-6-methoxy-4-(2-methyl-1-oxo-2,7-naphthyridin-4-yl)benzoyl]-4-piperidyl]-4-[4-[(2,6-dioxo-3-piperidyl)amino]phenyl]-N-methyl-piperidine-1-carboxamide], less than 100 nM.
Take `COc1cc(-c2cn(C)c(=O)c3cnccc23)cc(Cl)c1CN1CCC(C2CCN(c3ccc(NC4CCC(=O)NC4=O)cc3F)CC2)C(F)(F)C1` (stereo not drawn) [Compound 199]: the DC50 (Table 1) is less than 100 nM.
For the compound `COc1cc(-c2cn(C)c(=O)c3cnccc23)cc(Cl)c1C(=O)N1CCC(C2CCN(c3ccc(NC4CCC(=O)NC4=O)nc3)CC2)CC1` (stereo not drawn) [Compound 221], the DC50 (Table 1) was less than 100 nM.
For `COc1cc(-c2cn(C)c(=O)c3cnccc23)cc(Cl)c1C(=O)N1CCC(N2CCC(c3ccc(NC4CCC(=O)NC4=O)cc3)C(F)(F)C2)CC1` (stereo not drawn) [Compound 228], the DC50 (Table 1) is less than 100 nM.
On to `COc1cc(-c2cn(C)c(=O)c3[nH]ncc23)cc(OC)c1C(=O)N1CCN(C(=O)CN2CCC(c3ccc(NC4CCC(=O)NC4=O)cc3)CC2)CC1` (stereo not drawn) [Compound 46, 3-[4-[1-[2-[4-[2,6-dimethoxy-4-(6-methyl-7-oxo-1H-pyrazolo[3,4-c]pyridin-4-yl)benzoyl]piperazin-1-yl]-2-oxo-ethyl]-4-piperidyl]anilino]piperidine-2,6-dione], for which the DC50 (Table 1) was less than 100 nM.
Consider `COc1cc(-c2cn(C)c(=O)c3[nH]ncc23)cc(OC)c1CC1CCN(C(=O)CC2CCN(c3ccc(NC4CCC(=O)NC4=O)cc3C(F)(F)F)CC2)CC1` (stereo not drawn) [Compound 160], for which, where the note is “Table 1”, the 50% degradation concentration (DC50) was less than 100 nM.
As to `COc1cc(-c2cn(C)c(=O)c3ccccc23)cc(OC)c1C(=O)N1CCC(N(C)C(=O)N2CCC(c3ccc(NC4CCC(=O)NC4=O)cc3)CC2)CC1` (stereo not drawn) [Compound 135], the DC50 (Table 1) was less than 100 nM.
On to `COc1cc(-c2cn(C)c(=O)c3ccccc23)cc(OC)c1CN1CCN(C(=O)CC2CCN(c3ccc(NC4CCC(=O)NC4=O)cc3C(F)(F)F)CC2)CC1` (stereo not drawn) [Compound 62], for which, where the note is “Table 1”, the 50% degradation concentration (DC50) is less than 100 nM.
Regarding `Cn1cc(-c2ccc(CN3CCN(C(=O)CN4CCC(c5ccc(NC6CCC(=O)NC6=O)cc5)CC4)CC3)c(OC(F)(F)F)c2)c2ccc(F)cc2c1=O` (stereo not drawn) [Compound 36], the DC50 (Table 1) is less than 100 nM.
As for `COc1cc(-c2cn(C)c(=O)c(C)c2C)cc(OC)c1CN1CCC(C2CCN(c3ccc(NC4CCC(=O)NC4=O)cc3F)CC2)C(F)(F)C1` (stereo not drawn) [Compound 198], the DC50 (Table 1) is less than 100 nM.
With `COc1cc(-c2cn(C)c(=O)c3ccc(F)cc23)cc(OC)c1CN1CCN(C(=O)CN2CCC(c3ccc(NC4CCC(=O)NC4=O)cc3)CC2)CC1` (stereo not drawn) [Compound 27], the DC50 (Table 1) was less than 100 nM.
As to `COc1cc(-c2cn(C)c(=O)c3[nH]ncc23)cc(Cl)c1CN1CCN(C(=O)CN2CCC(c3ccc(NC4CCC(=O)NC4=O)cc3)CC2)CC1` (stereo not drawn) [Compound 12], the DC50 (Table 1) was less than 100 nM.
For the compound `COc1cc(-c2cn(C)c(=O)c3cnccc23)cc(Cl)c1CN1CCC(N2CCN(c3ccc(NC4CCC(=O)NC4=O)cc3F)CC2)C(F)(F)C1` (stereo not drawn) [Compound 177, 3-[4-[4-[1-[[2-chloro-6-methoxy-4-(2-methyl-1-oxo-2,7-naphthyridin-4-yl)phenyl]methyl]-3,3-difluoro-4-piperidyl]piperazin-1-yl]-3-fluoro-anilino]piperidine-2,6-dione], the DC50 (Table 1) was less than 100 nM.
For `COc1cc(-c2cn(C)c(=O)c3[nH]ncc23)cc(OC)c1CN1CCN(C(=O)CN2CCC(c3ccc(NC4CCC(=O)NC4=O)cc3)C(F)(F)C2)CC1` (stereo not drawn) [Compound 8], the DC50 (Table 1) is less than 100 nM.
For `COc1cc(-c2cn(C)c(=O)c3[nH]ncc23)cc(Cl)c1CN1CCC(CC(=O)N2CCC(c3ccc(NC4CCC(=O)NC4=O)cc3)CC2)C(F)(F)C1` (single isomer, unassigned) [Compound 204], the 50% degradation concentration (DC50) (Table 1) is less than 100 nM.
Turning to `C/C=C/Cn1cc(-c2cc(Cl)c(CN3CCC(N4CCN(c5ccc(NC6CCC(=O)NC6=O)cc5F)CC4)C(F)(F)C3)c(OC)c2)c2ccncc2c1=O` (stereo not drawn) [Compound 266], the half-maximal degradation concentration (DC50) (Table 2) was less than 100 nM.
On to `COc1cc(-c2cn(C)c(=O)c3[nH]ncc23)cc(OC)c1CNc1cccc(C(=O)N2CCC(c3ccc(NC4CCC(=O)NC4=O)cc3)CC2)c1` (stereo not drawn) [Compound 166, 3-[4-[1-[3-[[2,6-dimethoxy-4-(6-methyl-7-oxo-1H-pyrazolo[3,4-c]pyridin-4-yl)phenyl]methylamino]benzoyl]-4-piperidyl]anilino]piperidine-2,6-dione], for which, under “Table 1”, the half-maximal degradation concentration (DC50) was less than 100 nM.
`COc1cc(-c2cn(C)c(=O)c3[nH]ncc23)cc(OC)c1CN1CCN(C(=O)CN2CCC(c3ccc(NC4CCC(=O)NC4=O)cc3C(F)(F)F)CC2)CC1` (stereo not drawn) [Compound 18]: the 50% degradation concentration (DC50) (Table 1) was less than 100 nM.
For `CN(C(=O)N1CCC(c2ccc(NC3CCC(=O)NC3=O)cc2)CC1)C1CCN(Cc2ccc(-c3cn(C)c(=O)c4[nH]ncc34)cc2OC(F)(F)F)CC1` (stereo not drawn) [Compound 116], the 50% degradation concentration (DC50) (Table 1) is less than 100 nM.
Regarding `Cc1c(-c2ccc(C(=O)N3CCC(N4CCN(c5ccc(NC6CCC(=O)NC6=O)cc5F)CC4)C(F)(F)C3)c(OC(F)(F)F)c2)cn(C)c(=O)c1C` (stereo not drawn) [Compound 223], under “Table 1”, the half-maximal degradation concentration (DC50) is less than 100 nM.
On to `COc1cc(CN2CCN(C(=O)CN3CCC(c4ccc(NC5CCC(=O)NC5=O)cc4)CC3)CC2)c(OC(C)C)cc1-c1cn(C)c(=O)c2[nH]ncc12` (stereo not drawn) [Compound 26], for which the half-maximal degradation concentration (DC50) (Table 1) was less than 100 nM.
Take `COc1cc(-c2cn(C)c(=O)c(C)c2C)cc(OC)c1CN1CCC(N2CCN(c3ccc(NC4CCC(=O)NC4=O)cc3F)CC2)C(F)(F)C1` (single isomer, unassigned) [Compound 173, 3-[4-[4-[1-[[2,6-dimethoxy-4-(1,4,5-trimethyl-6-oxo-3-pyridyl)phenyl]methyl]-3,3-difluoro-4-piperidyl]piperazin-1-yl]-3-fluoro-anilino]piperidine-2,6-dione]: the DC50 (Table 1) is less than 100 nM.
For the compound `COc1cc(-c2cn(C)c(=O)c3[nH]ncc23)cc(Cl)c1CN1CCC(N(C)C(=O)N2CCC(c3ccc(NC4CCC(=O)NC4=O)cc3)CC2)CC1` (stereo not drawn) [Compound 117], the DC50 (Table 1) was less than 100 nM.
As for `COc1cc(-c2cn(C)c(=O)c(C)c2C)cc(OC)c1CN1CCC(N2CCN(c3ccc(NC4CCC(=O)NC4=O)cc3F)CC2)C(F)(F)C1` (single isomer, unassigned) [Compound 175, 3-[4-[4-[1-[[2,6-dimethoxy-4-(1,4,5-trimethyl-6-oxo-3-pyridyl)phenyl]methyl]-3,3-difluoro-4-piperidyl]piperazin-1-yl]-3-fluoro-anilino]piperidine-2,6-dione], the half-maximal degradation concentration (DC50) (Table 1) is less than 100 nM.
In the case of `COc1cc(-c2cn(C)c(=O)c3[nH]ncc23)cc(OC)c1CN1C[C@@H]2C[C@H]1CN2C(=O)CN1CCC(c2ccc(NC3CCC(=O)NC3=O)cc2)CC1` (stereo partly drawn) [Compound 13], the DC50 (Table 1) was less than 100 nM.
